Experimental data published in article PMC4209162, “Specific aromatic foldamers potently inhibit spontaneous and seeded Aβ42 and Aβ43 fibril assembly” (Biochemical Journal, 2014).
Entries after “also recorded” stand apart in the source; their conditions may differ.

What was measured:
Aβ42 [1] = molecular target: T1, Aβ42 (Homo sapiens, UniProt P05067); test: Spontaneous Aβ42 fibrillization (ThT fluorescence, EM); format: biochemical; conditions: 25°C; for Inhibition of spontaneous Aβ42 fibrillization: Aβ42 5 μM, foldamer 10 μM, 8 h, agitation, ThT fluorescence (EM 4 h); for Inhibition of spontaneous Aβ42 fibrillization, different assembly conditions: Aβ prepared without DMSO, PBE pH 8, Aβ42 5 μM, foldamer 20 μM, 16 h, ThT
Aβ42 fibrils = Aβ42 fibrils (Homo sapiens, UniProt P05067); test: Disassembly of preformed Aβ42 fibrils; format: biochemical; conditions: foldamer in 4-fold molar excess, 24 h (results not shown)
Aβ42 [2] = molecular target: T1, Aβ42; test: Seeded Aβ42 fibrillization (ThT fluorescence, EM); format: biochemical; conditions: for Inhibition of seeded Aβ42 fibrillization: foldamer 5, 10 or 20 μM, 0–2 h, 25°C; for Inhibition of seeded Aβ42 fibrillization, different assembly conditions: Aβ prepared without DMSO, PBE pH 8, Aβ42 5 μM plus seed 0.1 μM monomer, 16 h
Aβ43 [3] = molecular target: T2, Aβ43 (Homo sapiens, UniProt P05067); test: Spontaneous Aβ43 fibrillization (ThT fluorescence, EM); format: biochemical; conditions: Aβ43 5 μM; for Inhibition of spontaneous Aβ43 fibrillization: foldamer 5, 10 or 20 μM, 0–8 h, 25°C, ThT, EM 10 μM 4 h
[4] = system: SH-SY5Y human neuroblastoma cells; test: Toxicity of Aβ43 conformers to SH-SY5Y cells (MTT reduction, LDH release); format: cell-based; conditions: 24 h, MTT and LDH; for Effect on toxicity of Aβ43 conformers after 0.5 h of assembly: Aβ43 5 μM assembled with foldamer 20 μM for 0.5 h; for Effect on toxicity of Aβ43 conformers after 4 h of assembly: Aβ43 5 μM assembled with foldamer 20 μM for 4 h
Procedure: (§1) SH-SY5Y human neuroblastoma cells were maintained in Dulbecco's modified Eagle's medium (DMEM) plus 10 mM Hepes, 10% FBS, 4 mM glutamine, penicillin (200 units/ml) and streptomycin (200 μg/ml) in 5% CO2 at 37°C. Cells were differentiated in serum-free DMEM with N2 supplement and 10 μM all-trans-retinoic acid before use. Cells were plated at (10000 cells/well) in 96-well plates and grown overnight. Medium was removed and Aβ conformers or controls were added and cells were incubated for 24 h at 37°C. Toxicity was assessed using an MTT kit (Tox-1; Sigma) or via lactate dehydrogenase (LDH) release using the CytoTox-ONE™ kit (Promega). Toxicity values were normalized to the buffer control without Aβ.

FUS = molecular target: T3, FUS (Homo sapiens, UniProt P35637); test: FUS aggregation (turbidity, absorbance at 395 nm); format: biochemical; conditions: GST-FUS 5 μM, foldamer 20 μM, plus TEV protease, 25°C, 0–90 min
T3 sequence (P35637 1-526): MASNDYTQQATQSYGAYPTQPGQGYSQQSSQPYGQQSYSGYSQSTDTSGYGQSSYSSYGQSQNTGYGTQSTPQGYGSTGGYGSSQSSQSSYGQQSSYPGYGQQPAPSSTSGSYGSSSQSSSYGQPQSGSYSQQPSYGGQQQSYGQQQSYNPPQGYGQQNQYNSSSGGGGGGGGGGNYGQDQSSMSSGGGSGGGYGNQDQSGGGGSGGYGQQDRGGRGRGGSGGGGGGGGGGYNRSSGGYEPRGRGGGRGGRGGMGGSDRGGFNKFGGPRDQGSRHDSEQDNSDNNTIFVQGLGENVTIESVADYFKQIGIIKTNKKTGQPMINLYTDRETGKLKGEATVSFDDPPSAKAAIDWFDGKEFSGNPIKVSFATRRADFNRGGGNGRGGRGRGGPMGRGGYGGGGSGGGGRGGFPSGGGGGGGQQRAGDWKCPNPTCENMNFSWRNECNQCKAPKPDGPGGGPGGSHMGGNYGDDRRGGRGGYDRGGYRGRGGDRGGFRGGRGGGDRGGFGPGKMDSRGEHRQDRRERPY
Procedure: GST–TEV–FUS was purified as described. Aggregation was initiated by addition of tobbaco etch virus (TEV) protease to GST–TEV–FUS (5 μM) plus or minus foldamer (20 μM) in assembly buffer (50 mM Tris/HCl pH 8, 0.2 M trehalose and 20 mM glutathione). Aggregation was for 0–90 min at 25°C without agitation in a 96-well plate and was assessed by turbidity (absorbance at 395 nm) using a Tecan Infinite M1000 plate reader. No aggregation occurred unless TEV protease was added to separate GST from FUS [58].

[5] = system: SH-SY5Y human neuroblastoma cells; test: Toxicity of Aβ42 conformers to SH-SY5Y cells (MTT reduction, LDH release); format: cell-based; conditions: 24 h, MTT and LDH; for Effect on toxicity of Aβ42 conformers after 0.5 h of assembly: Aβ42 5 μM assembled with foldamer 20 μM for 0.5 h; for Effect on toxicity of Aβ42 conformers after 4 h of assembly: Aβ42 5 μM assembled with foldamer 20 μM for 4 h
Procedure: as §1

Aβ43 oligomers = Aβ43 oligomers (Homo sapiens, UniProt P05067); test: A11-reactive Aβ43 conformers (ELISA); format: biochemical; conditions: Aβ43 5 μM, foldamer 20 μM, 25°C; for Effect on A11-reactive Aβ43 conformers after 0.5 h: 0.5 h (end of lag phase); for Effect on A11-reactive Aβ43 conformers after 4 h: 4 h (endpoint of fibrillization)
Aβ42 oligomers = Aβ42 oligomers (Homo sapiens, UniProt P05067); test: A11-reactive Aβ42 conformers (ELISA); format: biochemical; conditions: Aβ42 5 μM, foldamer 20 μM, 25°C; for Effect on A11-reactive Aβ42 conformers after 0.5 h: 0.5 h (end of lag phase); for Effect on A11-reactive Aβ42 conformers after 4 h: 4 h (endpoint of fibrillization)
Aβ43 [6] = molecular target: T2, Aβ43; test: Seeded Aβ43 fibrillization (ThT fluorescence, EM); format: biochemical; conditions: for Inhibition of seeded Aβ43 fibrillization: Aβ43 5 μM plus seed 0.1 μM monomer, foldamer 5, 10 or 20 μM, 0–2 h, 25°C, ThT, EM
[7] = Aβ42 5 μM plus seed 0.1 μM monomer

T1 sequence (P05067 672-713 limits assumed): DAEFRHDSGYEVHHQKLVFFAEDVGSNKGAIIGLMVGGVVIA
Sequence of Aβ42 oligomers (P05067 672-713 limits assumed): as above
Sequence of Aβ43 oligomers (P05067 672-714 limits assumed): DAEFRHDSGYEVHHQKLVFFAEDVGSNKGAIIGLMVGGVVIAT
T2 sequence (P05067 672-714 limits assumed): as above
Sequence of Aβ42 fibrils (P05067 672-713 limits assumed): as the sequence (P05067 672-713 limits assumed) above

In the case of (Lys-Sal)4-COMe, the “Inhibition of spontaneous Aβ42 fibrillization” value (Aβ42 [1]) is reported as “ineffective”.

With Ac-Sal-(Lys-Sal)3-CONH2 the “Disassembly of Aβ42 fibrils” value (Aβ42 fibrils) was “did not disassemble Aβ42 fibrils”, the “Inhibition of spontaneous Aβ42 fibrillization” value (Aβ42 [1]) was “strong inhibitors; also recorded: potent inhibitors” and the “Inhibition of spontaneous Aβ42 fibrillization, different assembly conditions” value (Aβ42 [1]) was “inhibited”. For the same substance, the “Inhibition of seeded Aβ42 fibrillization” value (Aβ42 [2]; [7]) was “inhibited seeded Aβ42 fibrillization at all concentrations tested”, the “Inhibition of seeded Aβ42 fibrillization, different assembly conditions” value (Aβ42 [2]; foldamer 20 μM) was “inhibited” and the “Inhibition of spontaneous Aβ43 fibrillization” value (Aβ43 [3]) was “did not block spontaneous Aβ43 fibrillization”. For the same substance, the “Effect on toxicity of Aβ43 conformers after 0.5 h of assembly” value [4] was “neither Sal-(Lys-Sal)3-CONH2 nor Ac-Sal-(Lys-Sal)3-CONH2 affected the toxicity”, the “Effect on toxicity of Aβ43 conformers after 4 h of assembly” value [4] was “neither Sal-(Lys-Sal)3-CONH2 nor Ac-Sal-(Lys-Sal)3-CONH2 affected the toxicity” and the “Inhibition of FUS aggregation” value (FUS) was “did not inhibit FUS aggregation”. For the same substance, the “Effect on toxicity of Aβ42 conformers after 0.5 h of assembly” value [5] was “had no effect”, the “Effect on toxicity of Aβ42 conformers after 4 h of assembly” value [5] was “enhanced” and the “Effect on A11-reactive Aβ43 conformers after 0.5 h” value (Aβ43 oligomers) was “had no effect”. The “Effect on A11-reactive Aβ43 conformers after 4 h” value (Aβ43 oligomers) was “declined more extensively”, the “Effect on A11-reactive Aβ42 conformers after 0.5 h” value (Aβ42 oligomers) was “had no effect” and the “Effect on A11-reactive Aβ42 conformers after 4 h” value (Aβ42 oligomers) was “remained at higher levels”. The “Inhibition of seeded Aβ43 fibrillization” value (Aβ43 [6]) was “did not inhibit seeded Aβ43 fibrillization”.

With (Cit-Sal)-(Arg-Sal)-(Cit-Sal)2-CONH2 the “Inhibition of spontaneous Aβ42 fibrillization” value (Aβ42 [1]) was “ineffective”.

For Sal-(Lys-Sal)3-CONH2, the “Disassembly of Aβ42 fibrils” value (Aβ42 fibrils) was “did not disassemble Aβ42 fibrils”, the “Inhibition of spontaneous Aβ42 fibrillization” value (Aβ42 [1]) was “strong inhibitors; also recorded: potent inhibitors” and the “Inhibition of spontaneous Aβ42 fibrillization, different assembly conditions” value (Aβ42 [1]) was “inhibited”. For the same substance, the “Extent of seeded Aβ42 fibrillization at 4-fold molar excess of foldamer” value (Aβ42 [2]; Aβ42 5 μM plus seed 0.1 μM monomer, foldamer 20 μM) was “very limited”, the “Inhibition of seeded Aβ42 fibrillization” value (Aβ42 [2]; [7]) was “only inhibited seeded Aβ42 fibrillization when present at a 4-fold molar excess over Aβ42” and the “Inhibition of seeded Aβ42 fibrillization, different assembly conditions” value (Aβ42 [2]; foldamer 20 μM) was “inhibited”. The “ThT fluorescence of Aβ43 fibrils formed in presence of foldamer (spontaneous)” value (Aβ43 [3]; compared with Aβ43 alone) was “higher ThT fluorescence”, the “Inhibition of spontaneous Aβ43 fibrillization” value (Aβ43 [3]) was “did not block spontaneous Aβ43 fibrillization” and the “Effect on toxicity of Aβ43 conformers after 0.5 h of assembly” value [4] was “neither Sal-(Lys-Sal)3-CONH2 nor Ac-Sal-(Lys-Sal)3-CONH2 affected the toxicity”. For the same substance, the “Effect on toxicity of Aβ43 conformers after 4 h of assembly” value [4] was “neither Sal-(Lys-Sal)3-CONH2 nor Ac-Sal-(Lys-Sal)3-CONH2 affected the toxicity”, the “Inhibition of FUS aggregation” value (FUS) was “delayed FUS aggregation” and the “Effect on toxicity of Aβ42 conformers after 0.5 h of assembly” value [5] was “had no effect”. For the same substance, the “Effect on toxicity of Aβ42 conformers after 4 h of assembly” value [5] was “enhanced”, the “Effect on A11-reactive Aβ43 conformers after 0.5 h” value (Aβ43 oligomers) was “had no effect” and the “Effect on A11-reactive Aβ43 conformers after 4 h” value (Aβ43 oligomers) was “declined more extensively”. For the same substance, the “Effect on A11-reactive Aβ42 conformers after 0.5 h” value (Aβ42 oligomers) was “had no effect”, the “Effect on A11-reactive Aβ42 conformers after 4 h” value (Aβ42 oligomers) was “remained at higher levels” and the “Inhibition of seeded Aβ43 fibrillization” value (Aβ43 [6]) was “did not inhibit seeded Aβ43 fibrillization”. For the same substance, the “ThT fluorescence of Aβ43 fibrillar forms in presence of foldamer (seeded)” value (Aβ43 [6]; Aβ43 5 μM plus seed, compared with Aβ43 alone) was “higher ThT fluorescence signal”.

For (Lys-Sal)3-CONH2, the “Inhibition of spontaneous Aβ42 fibrillization” value (Aβ42 [1]) was “failed to inhibit assembly”.

In the case of Ac-(Lys-Sal)2-CONH2, the “Inhibition of spontaneous Aβ42 fibrillization” value (Aβ42 [1]) is reported as “failed to inhibit assembly”.

With Ac-(Lys-Sal)3-CONH2 the “Inhibition of spontaneous Aβ42 fibrillization” value (Aβ42 [1]) was “failed to inhibit assembly”.

(Arg-Sal)2-(Cit-Sal)-(Arg-Sal)-CONH2 was tested, and the “Inhibition of spontaneous Aβ42 fibrillization” value (Aβ42 [1]) was “ineffective”.

With (Lys-Sal)4-COOH the “Inhibition of spontaneous Aβ42 fibrillization” value (Aβ42 [1]) was “ineffective”.
